PMC10611581, “Directed evolution unlocks oxygen reactivity for a nicotine-degrading flavoenzyme” (Nature Chemical Biology, 2023)

B1: nicotine oxidoreductase (NicA2), wild type (enzyme, Pseudomonas putida S16, UniProt F8G0P2 39-482, looked up)
chain: TQKTNRASTVKGGFDYDVVVVGGGFAGATAARECGLQGYRTLLLEARSRLGGRTFTSRFAGQEIEFGGAWVHWLQPHVWAEMQRYGLGVVEDPLTNLDKTLIMYNDGSVESISPDEFGKNIRIAFEKLCHDAWEVFPRPHEPMFTERARELDKSSVLDRIKTLGLSRLQQAQINSYMALYAGETTDKFGLPGVLKLFACGGWNYDAFMDTETHYRIQGGTIGLINAMLTDSGAEVRMSVPVTAVEQVNGGVKIKTDDDEIITAGVVVMTVPLNTYKHIGFTPALSKGKQRFIKEGQLSKGAKLYVHVKQNLGRVFAFADEQQPLNWVQTHDYSDELGTILSITIARKETIDVNDRDAVTREVQKMFPGVEVLGTAAYDWTADPFSLGAWAAYGVGQLSRLKDLQAAEGRILFAGAETSNGWHANIDGAVESGLRAGREVKQLLS
notes: nicotine oxidoreductase NicA2 of Pseudomonas putida S16; crystallised with N-methylmyosmine (NMM); also called wild-type NicA2; WT; source: E. coli BL21 (DE3), purified (HisTrap, ULP-1 cleavage, HiTrap Q, Superdex 200)

Columns and labels:
[1] = molecular target: T1, NicA2 (nicotine oxidoreductase) (Pseudomonas putida, UniProt F8G0P2); assay: bound flavin absorbance at […] nm; ThermoFAD; assay type: binding; details: co-purified bound cofactor
T1 construct: expressed in E. coli BL21 (DE3) from pET28a-His-SUMO-nicA2, His-SUMO tag cleaved by ULP-1
T1 sequence (F8G0P2 39-482 limits assumed): B1 chain

[2] = molecular target: the molecule itself; assay: crystal structure; hanging-drop vapor diffusion at 4 °C; NicA2 v321 ligand-free and with 20 mM NMM (sodium citrate pH 5.0, 18% PEG 6000), wild type with 2.3 mM NMM (0.2 M ammonium citrate pH 7.0, 20% PEG 3350); two molecules in the asymmetric unit

Molecule | bound flavin absorbance at 450 nm; ThermoFAD [1] | stoichiometry N [2]
Cc1cc2nc3c(=O)[nH]c(=O)nc-3n(C[C@H](O)[C@H](O)[C@H](O)COP(=O)(O)OP(=O)(O)OC[C@H]3O[C@@H](n4cnc5c(N)ncnc54)[C@H](O)[C@@H]3O)c2cc1C [flavin adenine dinucleotide] | determined using the absorbance of bound FAD cofactor | 
B1 |  | 2
